In PubChem BioAssay AID248 (DTP/NCI, 2004):
“And” between values parts separate entries of the source, which are not always exact repeats. Identical values can stand only once. Inconclusive results and toxic doses are left out. Cut-off read from the data, not from the text of the source: active = T/C of 150% or more; inactive = T/C below 125%. Peptide text beside a SMILES is read from it.

Test system: L1210 leukemia ip in BDF1 mice, survival T/C
Test: NCI In Vivo Anticancer Drug Screen. Data for tumor model L1210 Leukemia (intraperitoneal) in B6D2F1 (BDF1) mice
Details: endpoint: mean survival time, higher = longer survival
In short: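 Read-out is survival time, reported as the treated-group measurement over the vehicle-control measurement.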

[1] = dose: 100.0 mg/kg/injection, schedule: Q01DX009 (ip), vehicle: saline with Tween-80
[2] = dose: 200.0 mg/kg/injection, schedule: Q01DX009 (ip), vehicle: saline with Tween-80
[3] = dose: 100.0 mg/kg/injection, schedule: Q04DX002 (ip), vehicle: Klucel (hydroxypropylcellulose) (HPC)
[4] = dose: 50.0 mg/kg/injection, schedule: Q01DX009 (ip), vehicle: Klucel (hydroxypropylcellulose) (HPC)
[5] = dose: 100.0 mg/kg/injection, schedule: Q01DX009 (ip), vehicle: Klucel (hydroxypropylcellulose) (HPC)
[6] = dose: 200.0 mg/kg/injection, schedule: Q01DX009 (ip), vehicle: Klucel (hydroxypropylcellulose) (HPC)
[7] = dose: 100.0 mg/kg/injection, schedule: Q04DX003 (ip), vehicle: saline
[8] = dose: 200.0 mg/kg/injection, schedule: Q04DX003 (ip), vehicle: saline
[9] = dose: 400.0 mg/kg/injection, schedule: Q04DX003 (ip), vehicle: saline
[10] = dose: 400.0 mg/kg/injection, schedule: Q01DX009 (ip), vehicle: saline with Tween-80
[11] = dose: 400.0 mg/kg/injection, schedule: Q01DX009 (ip), vehicle: Klucel (hydroxypropylcellulose) (HPC)
[12] = dose: 100.0 mg/kg/injection, schedule: Q04DX003 (ip), vehicle: Klucel (hydroxypropylcellulose) (HPC)
[13] = dose: 200.0 mg/kg/injection, schedule: Q04DX003 (ip), vehicle: Klucel (hydroxypropylcellulose) (HPC)
[14] = dose: 400.0 mg/kg/injection, schedule: Q04DX003 (ip), vehicle: Klucel (hydroxypropylcellulose) (HPC)
[15] = dose: 100.0 mg/kg/injection, schedule: Q04DX003 (ip), vehicle: saline with Tween-80
[16] = dose: 200.0 mg/kg/injection, schedule: Q04DX003 (ip), vehicle: saline with Tween-80
[17] = dose: 400.0 mg/kg/injection, schedule: Q04DX003 (ip), vehicle: saline with Tween-80
[18] = dose: 100.0 mg/kg/injection, schedule: Q01DX009 (ip), vehicle: saline
[19] = dose: 200.0 mg/kg/injection, schedule: Q01DX009 (ip), vehicle: saline
[20] = dose: 400.0 mg/kg/injection, schedule: Q01DX009 (ip), vehicle: saline

Measured: T/C

O=C(O)C1OC1(c1ccccc1Cl)c1ccccc1Cl (stereo unspecified)
inactive: dose: 50.0 mg/kg/injection, schedule: Q01DX001 (ip), vehicle: saline 101 % of control | dose: 100.0 mg/kg/injection, schedule: Q01DX001 (ip), vehicle: saline 95 % of control | dose: 200.0 mg/kg/injection, schedule: Q01DX001 (ip), vehicle: saline 98 % of control | dose: 400.0 mg/kg/injection, schedule: Q01DX001 (ip), vehicle: saline 104 % of control

O=C1c2ccccc2C(=O)c2c(Nc3cccc(S(=O)(=O)N(CCO)CCO)c3)ccc(O)c21
inactive: dose: 50.0 mg/kg/injection, schedule: Q01DX009 (ip), vehicle: saline with Tween-80 97 % of control | [1] 97 % of control | [2] 97 % of control

Cc1cc(Cl)c(Cl)cc1NC(=O)c1ccccc1Cl
inactive: [3] 97 % of control | dose: 200.0 mg/kg/injection, schedule: Q04DX002 (ip), vehicle: Klucel (hydroxypropylcellulose) (HPC) 97 % of control | dose: 400.0 mg/kg/injection, schedule: Q04DX002 (ip), vehicle: Klucel (hydroxypropylcellulose) (HPC) 94 % of control

Cc1c(-c2ccccc2)n(O)[n+]([O-])c1-c1ccccc1
inactive: [4] 98 % of control | [5] 94 % of control | [6] 94 % of control

COC1CC=CC2=C1CCC1C2CC2C(=O)C1(C)CCC2O (stereo unspecified)
inactive: [7] 94 % of control | [8] 100 % of control | [9] 97 % of control

COc1cc(OC)cc(-n2cccc2)c1
inactive: dose: 100.0 mg/kg/injection, schedule: Q04DX002 (ip), vehicle: saline with Tween-80 90 % of control | dose: 200.0 mg/kg/injection, schedule: Q04DX002 (ip), vehicle: saline with Tween-80 97 % of control | dose: 400.0 mg/kg/injection, schedule: Q04DX002 (ip), vehicle: saline with Tween-80 87 % of control

CCCCCN(CCCCC)CCCNc1c2c(nc3ccc(OC)cc13)CCCC2
inactive: dose: 2.5 mg/kg/injection, schedule: Q01DX009 (ip), vehicle: saline 100 % of control | dose: 5.0 mg/kg/injection, schedule: Q01DX001 (ip), vehicle: saline 98 % of control | dose: 5.0 mg/kg/injection, schedule: Q01DX009 (ip), vehicle: saline 104 % of control | dose: 9.0 mg/kg/injection, schedule: Q01DX001 (ip), vehicle: saline 94 % of control and 102 % of control | dose: 10.0 mg/kg/injection, schedule: Q01DX001 (ip), vehicle: saline 96 % of control | dose: 10.0 mg/kg/injection, schedule: Q01DX009 (ip), vehicle: saline 98 % of control | dose: 13.0 mg/kg/injection, schedule: Q01DX001 (ip), vehicle: saline 94 % of control | dose: 14.0 mg/kg/injection, schedule: Q01DX001 (ip), vehicle: saline 104 % of control | dose: 20.0 mg/kg/injection, schedule: Q01DX001 (ip), vehicle: saline 93 % of control and 102 % of control (2×) | dose: 20.0 mg/kg/injection, schedule: Q01DX009 (ip), vehicle: saline 100 % of control | dose: 30.0 mg/kg/injection, schedule: Q01DX001 (ip), vehicle: saline 98 % of control

CC(C)COC(=O)Nc1cccc(O)c1
inactive: [1] 91 % of control | [2] 90 % of control | [10] 94 % of control

O=C(c1ccccc1)c1c(-c2ccccc2)c(C(=O)c2ccccc2)c2ccccc2c1Cl
inactive: dose: 6.25 mg/kg/injection, schedule: Q01DX009 (ip), vehicle: water 96 % of control | dose: 12.5 mg/kg/injection, schedule: Q01DX009 (ip), vehicle: water 97 % of control | dose: 25.0 mg/kg/injection, schedule: Q01DX009 (ip), vehicle: water 94 % of control and 117 % of control | dose: 50.0 mg/kg/injection, schedule: Q01DX009 (ip), vehicle: water 94 % of control and 97 % of control | dose: 100.0 mg/kg/injection, schedule: Q01DX009 (ip), vehicle: water 101 % of control | dose: 200.0 mg/kg/injection, schedule: Q01DX009 (ip), vehicle: water 101 % of control | dose: 400.0 mg/kg/injection, schedule: Q01DX009 (ip), vehicle: water 97 % of control

Nc1ccc2cc(S(=O)(=O)O)ccc2c1
inactive: [7] 96 % of control | [8] 94 % of control | [9] 94 % of control

CSc1ccc(NC(=O)C(Br)C(Br)c2ccccc2)cc1 (stereo unspecified)
inactive: [5] 103 % of control | [6] 105 % of control | [11] 102 % of control

O=C(O)CNc1cccc([N+](=O)[O-])c1
inactive: dose: 65.0 mg/kg/injection, schedule: Q01DX009 (ip), vehicle: Klucel (hydroxypropylcellulose) (HPC) 100 % of control | [5] 100 % of control | [12] 98 % of control | dose: 150.0 mg/kg/injection, schedule: Q01DX009 (ip), vehicle: Klucel (hydroxypropylcellulose) (HPC) 94 % of control | [13] 93 % of control | [14] 101 % of control

CC(=O)NC(CO)C(=O)NCC(=O)NC(CCCN=C(N)N)C(N)=O (stereo not drawn) (Ac-Ser-Gly-Arg-NH2; configuration not given here)
inactive: dose: 25.0 mg/kg/injection, schedule: Q04DX002 (ip), vehicle: Klucel (hydroxypropylcellulose) (HPC) 100 % of control | dose: 50.0 mg/kg/injection, schedule: Q04DX002 (ip), vehicle: Klucel (hydroxypropylcellulose) (HPC) 100 % of control | [3] 100 % of control

COc1ccc(/C=N/NC(=O)CNC(=O)c2ccc(Cl)c(Cl)c2)cc1
inactive: dose: 12.5 mg/kg/injection, schedule: Q01DX009 (ip), vehicle: saline with Tween-80 104 % of control

CCOC(=O)NCC(CCN(C)C)(c1cccc2ccccc12)C(C)CC (stereo unspecified)
inactive: dose: 25.0 mg/kg/injection, schedule: Q01DX009 (ip), vehicle: Klucel (hydroxypropylcellulose) (HPC) 94 % of control | [4] 94 % of control | dose: 50.0 mg/kg/injection, schedule: Q04DX003 (ip), vehicle: Klucel (hydroxypropylcellulose) (HPC) 105 % of control | [12] 103 % of control

Cc1ccc2nc(-c3ccc(N)cc3)sc2c1
inactive: [1] 96 % of control | [2] 91 % of control

O=C(COc1ccccc1)NCCc1ccccc1
inactive: dose: 100.0 mg/kg/injection, schedule: Q04DX003 (ip), vehicle: gum acacia 97 % of control | dose: 200.0 mg/kg/injection, schedule: Q04DX003 (ip), vehicle: gum acacia 108 % of control | dose: 400.0 mg/kg/injection, schedule: Q04DX003 (ip), vehicle: gum acacia 95 % of control

O=C(CCl)OC1CCCCC1
inactive: [1] 105 % of control | [2] 97 % of control

OC1CSCSC1
inactive: [1] 98 % of control | [15] 98 % of control | [2] 94 % of control | [16] 98 % of control | [10] 94 % of control | [17] 98 % of control

c1ccc(CCCCc2ccccn2)cc1
inactive: [5] 105 % of control | [12] 101 % of control | [6] 105 % of control | [13] 105 % of control | [11] 97 % of control | [14] 94 % of control

O=C(O)c1cc([N+](=O)[O-])ccc1Oc1cccc(Cl)c1
inactive: dose: 75.0 mg/kg/injection, schedule: Q01DX001 (ip), vehicle: saline 96 % of control | dose: 150.0 mg/kg/injection, schedule: Q01DX001 (ip), vehicle: saline 95 % of control | dose: 300.0 mg/kg/injection, schedule: Q01DX001 (ip), vehicle: saline 96 % of control

CCOC(=O)C(=CN1CCCC1)C(=O)OCC
inactive: [18] 104 % of control | [15] 98 % of control | [19] 109 % of control | [16] 98 % of control | [20] 96 % of control | [17] 93 % of control

O=c1[nH]cnc2c1cnn2-c1ccccc1
inactive: [5] 104 % of control | [6] 104 % of control | [11] 112 % of control

O=C(Nc1ccc(N=Nc2ccccc2)cc1)C1CC1
inactive: [5] 101 % of control | [6] 100 % of control | [11] 94 % of control

CC1(O)CCC2C3CCC4CC(=O)CCC4(C)C3(F)C(O)CC21C (stereo unspecified)
inactive: [18] 96 % of control | [19] 102 % of control | [20] 96 % of control

Cc1cc(=O)[nH]c(Nc2ccccc2)n1
inactive: [1] 90 % of control | [2] 93 % of control | [10] 90 % of control

CN(C)c1ccc(N=Nc2cccc(Cl)c2)cc1
inactive: [5] 97 % of control | [6] 97 % of control | [11] 90 % of control

O=C(/C=C/c1ccccc1)N(c1ccccc1)C1CCCCC1
inactive: [12] 112 % of control | [13] 89 % of control | [14] 88 % of control
